# Laboratory results as given in article PMC8445441, “Elucidating the mechanism by which synthetic helper peptides sensitize Pseudomonas aeruginosa to multiple antibiotics” (PLoS Pathogens, 2021).
# Where two headings read alike, the source gives them in different places.
# Tests used:
# P. aeruginosa NR-31040 = assay: microbe, parasite or virus in culture; parameters: MICa: MIC of the antibiotic / MICac: MIC of the antibiotic in the combination: unit not given beside the values; settings: strain NR-31040
# Experimental: (§1) The MIC tests were performed in triplicate using broth microdilution in accordance with Clinical and Laboratory Standards Institute (CLSI) recommendations (http://iacld.ir/DL/public/CLSI-2018-M100-S28.pdf). Briefly, drugs were two-fold diluted in MHB and mixed with an equal volume of bacterial suspensions containing approximately 1 × 10^6 CFU/mL in 96-well microliter plate. After 18 h incubation at 37 °C, the MIC values were defined as the lowest concentrations of antibiotics with no visible growth of bacteria. […] Otherwise, 1/4 MIC of the peptide was used in the combination. […] If needed, membrane compounds PG, PE, PC, CL or LPS, or membrane stabilizers MgCl2 or CaCl2, or efflux pumps inhibitor PAβN were added to the broth medium to clarify the effect of other substances on the synergy between peptide and antibiotics. All the tests were performed in triplicate.
# (§2) The fractional inhibitory concentration (FIC) indices were calculated using the previously described formula FICI = FICa + FICb = MICac/MICa + MICbc/MICb. The FICI was interpreted according to EUCAST [65] as follows: synergistic, FICI≤0.5; additive, 0.5<FICI≤1; indifferent, 1<FICI<2; antagonistic, FICI ≥2. For the FICI calculations, twice the highest concentration tested was used in the cases where the MIC was not reached.
# P. aeruginosa PA14 = assay: microbe, parasite or virus in culture; parameters: MICa: MIC of the antibiotic / MICac: MIC of the antibiotic in the combination: unit not given beside the values; settings: strain PA14
# Experimental: as §1, §2
# P. aeruginosa PAK = assay: microbe, parasite or virus in culture; parameters: MICa: MIC of the antibiotic / MICac: MIC of the antibiotic in the combination: unit not given beside the values
# Experimental: as §1, §2
# P. aeruginosa ATCC27853 = assay: microbe, parasite or virus in culture; parameters: MICa: MIC of the antibiotic / MICac: MIC of the antibiotic in the combination: unit not given beside the values
# Experimental: as §1, §2
# P. aeruginosa NR-31041 = assay: microbe, parasite or virus in culture; parameters: MICa: MIC of the antibiotic / MICac: MIC of the antibiotic in the combination: unit not given beside the values
# Experimental: as §1, §2
# [1] = system: clinical P. aeruginosa isolates; assay: microbe, parasite or virus in culture; settings: Pseudomonas aeruginosa, 18 h
# Outline: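 MIC is the lowest drug concentration showing no visible growth after 18 h at 37 °C. Two-fold dilutions in MHB were combined with an equal volume of bacterial suspension (about 1 × 10^6 CFU/mL), following CLSI broth microdilution, in triplicate.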
# P. aeruginosa AUMC-Pa-6 = assay: microbe, parasite or virus in culture
# Outline: (§3)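 After 18 h at 37 °C, the lowest concentration showing no visible growth was read as the MIC. Drugs were serially diluted two-fold in MHB and combined with an equal volume of inoculum (~1 × 10^6 CFU/mL), following CLSI broth microdilution; run in triplicate.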
# P. aeruginosa PAO1 = assay: microbe, parasite or virus in culture; settings: for FICI / MICac: the MIC for the antibiotic in the combination: S3 Table, PAO1
# Outline: as §3
# P. aeruginosa AUMC-Pa-4 = assay: microbe, parasite or virus in culture
# Outline: as §3
# P. aeruginosa AUMC-Pa-3 = assay: microbe, parasite or virus in culture
# Outline: as §3
# P. aeruginosa AUMC-Pa-5 = assay: microbe, parasite or virus in culture; settings: strain AUMC-Pa-5
# Outline: as §3
# P. aeruginosa HM-214 = settings: strain HM-214; antibiotic + D-11 (MICb/MICbc 128/4)
# Experimental: as §1, §2
# P. aeruginosa AUMC-Pa-2 = settings: strain AUMC-Pa-2; antibiotic + D-11 (MICb/MICbc 64/4)
# Experimental: as §1, §2
# P. aeruginosa AUMC-Pa-1 = settings: strain AUMC-Pa-1; antibiotic + D-11 (MICb/MICbc 128/4)
# Experimental: as §1, §2
# [2] = antibiotic + D-11 (MICb/MICbc 128/4)
# [3] = antibiotic alone, unit not given
# [4] = with D-11 at MICbc 4, unit not given
structure (smiles),measurement,setting,value
CO[C@@H]1[C@@H](OC(=O)c2ccc(C)[nH]2)[C@@H](O)[C@H](Oc2ccc3c(O)c(NC(=O)c4ccc(O)c(CC=C(C)C)c4)c(=O)oc3c2Cl)OC1(C)C [Chlorobiocin],FICI,P. aeruginosa NR-31040; [2],1.031
same,MICa: MIC of the antibiotic,P. aeruginosa NR-31040; [3],1/1
same,MICac: MIC of the antibiotic in the combination,P. aeruginosa NR-31040; [4],1/1
same,FICI,P. aeruginosa PA14; [2],1.031
same,MICa: MIC of the antibiotic,P. aeruginosa PA14; [3],1/1
same,MICac: MIC of the antibiotic in the combination,P. aeruginosa PA14; [4],1/1
same,MIC,"P. aeruginosa PAK; Pseudomonas aeruginosa, 18 h, read-out: MICa: MIC of the antibiotic",0.5 µM
same,FICI,"P. aeruginosa PAK; strain PAK, antibiotic + D-11 (MICb/MICbc 64/4)",1.063
same,MICac: MIC of the antibiotic in the combination,"P. aeruginosa PAK; strain PAK, with D-11 at MICbc 4, unit not given",0.5/0.5
same,MIC,"P. aeruginosa ATCC27853; Pseudomonas aeruginosa, ATCC27853, 18 h, read-out: MICa: MIC of the antibiotic",0.5 µM
same,FICI,"P. aeruginosa ATCC27853; strain ATCC27853, antibiotic + D-11 (MICb/MICbc 32/4)",1.125
same,MICac: MIC of the antibiotic in the combination,"P. aeruginosa ATCC27853; strain ATCC27853, with D-11 at MICbc 4, unit not given",0.5/0.5
same,MIC,"P. aeruginosa NR-31041; Pseudomonas aeruginosa, NR31041, 18 h, read-out: MICa: MIC of the antibiotic",1 µM
same,FICI,"P. aeruginosa NR-31041; strain NR-31041, antibiotic + D-11 (MICb/MICbc 64/4)",0.563
same,MICac: MIC of the antibiotic in the combination,"P. aeruginosa NR-31041; strain NR-31041, with D-11 at MICbc 4, unit not given",0.5
same,MIC,[1]; read-out: Antibiotic sensibility (MIC) of clinical P. aeruginosa isolate AUMC-Pa-1,4 µM
same,MIC,[1]; read-out: Antibiotic sensibility (MIC) of clinical P. aeruginosa isolate AUMC-Pa-2,0.25 µM
same,MIC,[1]; read-out: Antibiotic sensibility (MIC) of clinical P. aeruginosa isolate AUMC-Pa-3,0.5 µM
same,MIC,[1]; read-out: Antibiotic sensibility (MIC) of clinical P. aeruginosa isolate AUMC-Pa-4,0.25 µM
same,MIC,[1]; read-out: Antibiotic sensibility (MIC) of clinical P. aeruginosa isolate AUMC-Pa-5,1 µM
same,MIC,[1]; read-out: Antibiotic sensibility (MIC) of clinical P. aeruginosa isolate AUMC-Pa-6,0.25 µM
same,MIC,[1]; read-out: Antibiotic sensibility (MIC) of clinical P. aeruginosa isolate HM-214,1 µM
same,MIC,[1]; read-out: Antibiotic sensibility (MIC) of clinical P. aeruginosa isolate NR-31040,1 µM
same,MIC,[1]; read-out: Antibiotic sensibility (MIC) of clinical P. aeruginosa isolate NR-31041,1 µM
same,MIC,"P. aeruginosa AUMC-Pa-6; Pseudomonas aeruginosa, AUMCPA6, 18 h, read-out: MICa: MIC of the antibiotic",0.25 µM
same,FICI,"P. aeruginosa AUMC-Pa-6; strain AUMC-Pa-6, antibiotic + D-11 (MICb/MICbc 64/4)",1.063
same,MICac: MIC of the antibiotic in the combination,"P. aeruginosa AUMC-Pa-6; strain AUMC-Pa-6, with D-11 at MICbc 4, unit not given",0.25/0.25
same,MIC,"P. aeruginosa PAO1; Pseudomonas aeruginosa, PAO1, 18 h, read-out: MICa: the MIC of antibiotics",0.5 µM
same,FICI,P. aeruginosa PAO1; antibiotic + 2 μM D-11,0.313
same,FICI,P. aeruginosa PAO1; antibiotic + 4 μM D-11,0.375
same,MICac: the MIC for the antibiotic in the combination,P. aeruginosa PAO1; with 2 μM D-11,0.125 µM
same,MICac: the MIC for the antibiotic in the combination,P. aeruginosa PAO1; with 4 μM D-11,0.125 µM
same,MIC,"P. aeruginosa AUMC-Pa-4; Pseudomonas aeruginosa, AUMCPA4, 18 h, read-out: MICa: MIC of the antibiotic",0.25 µM
same,FICI,"P. aeruginosa AUMC-Pa-4; strain AUMC-Pa-4, antibiotic + D-11 (MICb/MICbc 128/4)",2.031
same,MICac: MIC of the antibiotic in the combination,"P. aeruginosa AUMC-Pa-4; strain AUMC-Pa-4, with D-11 at MICbc 4, unit not given",0.5
same,MIC,"P. aeruginosa AUMC-Pa-3; Pseudomonas aeruginosa, AUMCPA3, 18 h, read-out: MICa: MIC of the antibiotic",0.5 µM
same,FICI,"P. aeruginosa AUMC-Pa-3; strain AUMC-Pa-3, antibiotic + D-11 (MICb/MICbc 128/4)",1.031
same,MICac: MIC of the antibiotic in the combination,"P. aeruginosa AUMC-Pa-3; strain AUMC-Pa-3, with D-11 at MICbc 4, unit not given",0.5/0.5
same,FICI,P. aeruginosa AUMC-Pa-5; antibiotic + D-11 (MICb/MICbc 64/4),2.063
same,MICa: MIC of the antibiotic,P. aeruginosa AUMC-Pa-5; [3],1
same,MICac: MIC of the antibiotic in the combination,P. aeruginosa AUMC-Pa-5; [4],2
same,FICI,P. aeruginosa HM-214,1.031
same,FICI,P. aeruginosa AUMC-Pa-2,2.063
same,FICI,P. aeruginosa AUMC-Pa-1,1.031
